Data published in PMC11984388, “A brain-accessible peptide modulates stroke inflammatory response and neurotoxicity by targeting BDNF-receptor TrkB-T1 specific interactome” (Theranostics, 2025).

Columns and labels:
[1] = system: neurons of primary cortical cultures; experiment: Neuronal viability (MTT) in non-stimulated cultures; assay type: cell-based, rat
Experimental: Cultures were prepared from cerebral cortex of 18-day-old Wistar rat embryos, both genders indistinctly included. Unless otherwise indicated, glial growth was inhibited after 7 days in vitro (DIVs), experimental treatments taking place after 12 DIVs. These cultures present a high percentage of neurons, combined with glial cells, mostly astrocytes. To induce excitotoxicity, cultures were incubated with NMDA (100 µM) and its co-agonist glycine (10 µM), herein denoted simply as NMDA, which induce a strong excitotoxic response in mature neurons but have no effect on astrocyte viability,[47]. When indicated, cultures were preincubated for 30 min with indicated concentrations of Tat-derived CPPs before NMDA treatment, peptides being kept in the medium along treatment. Total cell or neuronal viability assessment was established by the thiazolyl blue formazan (MTT) reduction assay. Further details are provided as Supplementary material. […]
skull for 10 min. Br ain injury encompas se s damage to vas cular endothelium, platelet activation, and subs equent microvascula r thrombotic occlus ion of the irradiate d region. The ar eas underneath this ste reotaxic position that result irradiate d ar e the prima ry motor cortex and the prima ry soma tos ens ory cortex (hindlimb and forelimb). Once completed surgery, the incision was sutured, and mice were allowed to recover. […]

GFAP+/C3+ cells = experiment: Immunohistochemistry of reactive astrocytes in ischemic brain; assay type: in vivo, mice; conditions: 3 nmol/g 1 h after damage; early after injury (5 h); versus TMyc
Experimental: (§1) The brains of animals injected one hour af ter the initiation of the photothrombotic damage with vehicle (saline), TMyc or TT1Ct (3 nmol/g) were process ed and cryoprote cted as before indicated. The duration of damage before sa cri f i ce was 5 h (male and female) or 24 h (male).
(§2) Coronal froze n se ctions were incubated with blocking solution as des cribe d in flota tion for 1 h at room temperature and then overnight with prima ry antibodies diluted in 4% goat se rum and 0.3% Triton X-100 in PBS at 4°C. After was hing, slides were incubated 1 h with Alexa Fluor 546- conjugated goat anti-rabbit or AlexaFluor 647- conjugated goat anti-mouse se condary antibodies to visua liz e the prima ry antibodies and DAPI (5 μg/ml). Only for Iba1 sta ining, blocking solution was 2.5% BS A, 5% goat se rum, 0.5% Triton X-100 in PBS, and se ctions were incubated with prima ry antibody 24 h at RT follow ed by was hing and Alexa Fluor 546-conjugated goat anti-rabbit and DAPI incubation for 1 h. Sections were then was hed in PBS, mounted on slides , dried for 15 min at 37 °C on a hot plate, or air dried overnight and then cover slipped with DPX or Prolong Diamond. Ce ll Obs erve d images were obtained with Zeiss microscope Observe r.Z1 using a 10x Plan-Apochromatic objective. […]

[2] = Immunoglobulin infiltration in ischemic brain; assay type: in vivo; conditions: male mice, 24 h after insult; versus control peptide (Fig S7)
Experimental: as §1, §2

Iba1 = experiment: Immunohistochemistry of microglia in ischemic brain; assay type: in vivo; conditions: male mice, 3 nmol/g, 24 h of insult; versus TMyc
Experimental: as §1, §2

## Ac-YGRKKRRQRRRPPFVLFHKIPLDG-NH2 [TT1Ct]
[1]; concentrations lower than 25 µM
  Intrinsic toxicity: not intrinsically toxic
[1]; higher dose employed (25 µM)
  Toxicity for non-stimulated cultures: toxic
GFAP+/C3+ cells
  Effect on GFAP+/C3+ cells at the infarct boundary: strong decrease
[2]
  Immunoglobulin infiltration: reduced immunoglobulin infiltration
Iba1
  Effect on Iba1 in reactive microglia: limited Iba1 upregulation
